We go through 31 compounds from US4075340A, “Thieno [2,3-C] pyridine derivatives and therapeutic composition containing same” (Parcor, priority 1975, dated 1978).

Structures are written as SMILES. Counter-ions that a name gives are not always drawn. Like-named read-outs stand apart in the source and are kept apart here.

Series [1] deals with ovalbumin-induced systemic edema in rats. Put plainly: Ovalbumin-induced Systemic Edema Method. It is filed as in vivo. Conditions: Rattus norvegicus, oral 100 mg/kg, 1 hour before and with ovalbumin. The method, then:
b) Ovalbumin-induced Systemic Edema Method
Rats are administered a simultaneous intraperitoneal injection of 1 ml ovalbumin and 0.5 ml of a 1% aqueous Evans Blue solution. The animals of the treated group are additionally administered orally 100 mg/kg of the test derivative, one hour prior to ovalbumin administration and then simultaneously with said ovalbumin administration. The intensity of the phenomenon thus induced is rated according to a scale from 1 to 5, according to the progress of the inflammatory syndrome. The measurements are effected after 2 hours and after 3 hours. Thus are determined the mean intensity of the edema and the percent decrease of the edema reaction.

The test system of series [2] is carrageenin-induced edema in rats. Put plainly: Localized Carrageenin-induced Edema Method. It is filed as in vivo. Conditions: Rattus norvegicus, oral 100 mg/kg, repeated (1 hour before, with, 1 and 2.5 hours after carrageenin). Here is the method:
a) Localized Carrageenin-induced Edema Method
0.1 ml of a 1% carrageenin solution is injected at time 0 in the metatarsal flexor muscles of the right hind limb of rats. The animals of the treated group are administered orally, additionally, 100 mg/kg of the test derivative, respectively one hour prior to and then simultaneously with the phlogogenic agent, and then one hour and 2.5 hours thereafter. The determinations effected with a ROCH micrometer at times 0, 1 hour, 2 hrs, 3 hrs and 5hrs after carrageenin administration, make it possible to determine the percent anti-inflammatory activity, as a function of time.

The test system of series [3] is blood platelet aggregation. As to the kind of experiment: Inhibiting activity on blood platelet aggregation (adenosine diphosphate induced, turbidimetric assay). It is filed as in vivo. The conditions noted are these: rat plasma, animals administered 100 mg/kg, read-out: percent inhibition on blood platelet aggregation. The method, then:
Rat plasma, prepared to contain 600,000+20,000 blood platelets per mm3 is normally cloudy. Addition of adenosine diphosphate induces blood platelet aggregation and, thus an increase of the light transmission. When the same test is effected with a plasma prepared from the blood of an animal which has been administered 100 mg/kg of a derivative having an inhibiting effect on blood platelet aggregation, there is no aggregation of the blood platelets and the serum remains cloudy. The turbidimetric assay effected with a spectrophotometer provides a measure of the inhibiting activities of the test derivatives on blood platelet aggregation.

Series [4] can be described thus: acute toxicity, LD50 /24 hrs/kg body weight, intravenous route, method according to Miller and Tainter. Conditions: in vivo.
Where [5] appears, read: after 2 hours, read-out: Percent decrease (of the edema reaction) after 2 hours.
[6] abbreviates: after 3 hours, read-out: Percent decrease (of the edema reaction) after 3 hours.
[7] abbreviates: after 1 hour, read-out: Percent anti-inflammatory activity after 1 hour.
[8] abbreviates: after 2 hours, read-out: Percent anti-inflammatory activity after 2 hours.
Setting [9] is: after 5 hours, read-out: Percent anti-inflammatory activity after 5 hours.

In the case of `CCCCCCCCCCCCN1CCc2ccsc2C1` [Derivative No. 1, 6-n-dodecyl-4,5,6,7-tetrahydro-thieno[2,3-c]pyridine], the inhibition in vivo at 100 mg/kg amounted to 36% in series [1] (setting [5]); 51% in series [1] (setting [6]); 38% in series [2] (setting [7]); 46% in series [2] (setting [8]); 54% in series [2] (setting [9]).
`COc1cc(CN2CCc3ccsc3C2C)cc(OC)c1OC` (centres unmarked) [Derivative No. 3, 7-methyl-6-(3,4,5-trimethoxy-benzyl)-4,5,6,7-tetrahydro-thieno[2,3-c]pyridine]: the inhibition at 100 mg/kg in series [3] was determined as 91%.
As to `O=C(O)c1ccccc1CN1CCc2ccsc2C1` [Derivative No. 5, 6-o-carboxybenzyl-4,5,6,7-tetrahydro-thieno[2,3-c]pyridine], the inhibition in vivo at 100 mg/kg in series [1] (setting [5]) worked out at 42%; in series [1] (setting [6]), 61%; in series [2] (setting [7]), 44%; in series [2] (setting [8]), 52%; in series [2] (setting [9]) it was 60%.
On to `Clc1ccc(CN2CCc3ccsc3C2)s1` [Derivative No. 6, 6-[2-(5-chloro-thienyl)-methyl]-4,5,6,7-tetrahydro-thieno[2,3-c]pyridine], for which, in series [4], the LD50 at 24 h was 135 mg/kg.
With `CC1c2sccc2CCN1CC(O)c1ccccc1` (centres unmarked) [Derivative No. 7, 6-(2-hydroxy-2-phenyl-ethyl)-7-methyl-4,5,6,7-tetrahydro-thieno[2,3-c]pyridine], the inhibition at 100 mg/kg in series [3] amounted to 85%.
In the case of `CC(=O)OC(CN1CCc2ccsc2C1)c1ccc(Cl)cc1` (centres unmarked) [Derivative No. 8, 6-(2-acetoxy-2-p-chlorophenyl-ethyl)-4,5,6,7-tetrahydro-thieno[2,3-c]pyridine], the inhibition in vivo at 100 mg/kg in series [1] (setting [5]) worked out at 45%; in series [1] (setting [6]), 58%; in series [2] (setting [7]), 40%; in series [2] (setting [8]), 49%; in series [2] (setting [9]) it was 59%.
In series [4], `CC(O)CN1CCc2ccsc2C1.Cl` (centres unmarked) [Derivative No. 9, 6-(2-hydroxy-propyl)-4,5,6,7-tetrahydro-thieno[2,3-c]pyridine, hydrochloride] came in with an LD50 at 24 h of 120 mg/kg. Moreover, the inhibition at 100 mg/kg in series [3] was determined as 89%.
Regarding `COc1cccc(C(CN2CCc3ccsc3C2)OC(C)=O)c1` (centres unmarked) [Derivative No. 10, 6-(2-acetoxy-2m.methoxyphenyl-ethyl)-4,5,6,7-tetrahydro-thieno[2,3-c]pyridine], the LD50 at 24 h in series [4] was 80 mg/kg.
Same read-out and setting: the figure for `Cl.O=[N+]([O-])c1ccccc1CN1CCc2ccsc2C1` [Derivative No. 11, 6-o-nitrobenzyl-4,5,6,7-tetrahydro-thieno[2,3-c]pyridine, hydrochloride] is 160 mg/kg.
As to `O=[N+]([O-])c1ccc(CN2CCc3ccsc3C2)cc1` [Derivative No. 12, 6-p-nitrobenzyl-4,5,6,7-tetrahydro-thieno[2,3-c]pyridine], the inhibition at 100 mg/kg in series [3] came out at 75%.
Regarding `COc1cc(CN2CCc3ccsc3C2)cc(OC)c1OC.O=C(O)/C=C\C(=O)O` [Derivative No. 17, 6-(3,4,5-trimethoxy-benzyl)-4,5,6,7-tetrahydro-thieno[2,3-c]pyridine, maleate], the LD50 at 24 h in series [4] was determined as 80 mg/kg.
Compound `COc1ccc(CN2CCc3ccsc3C2)cc1` [Derivative No. 18, 6-p.methoxybenzyl-4,5,6,7-tetrahydro-thieno[2,3-c]pyridine, hydrochloride] came in with a median lethal dose (LD50) at 24 h in series [4] of 60 mg/kg. In series [3], the inhibition at 100 mg/kg was determined as 78%.
Compound `c1ccc(CCN2CCc3ccsc3C2)cc1` [Derivative No. 19, 6-β-phenethyl-4,5,6,7-tetrahydro-thieno[2,3-c]pyridine, hydrochloride] came in with a median lethal dose (LD50) at 24 h in series [4] of 48 mg/kg.
Compound `COc1cccc(CN2CCc3ccsc3C2)c1` [Derivative No. 20, 6-m.methoxybenzyl-4,5,6,7-tetrahydro-thieno-[2,3-c]pyridine, hydrochloride] yielded a median lethal dose (LD50) at 24 h in series [4] of 63 mg/kg.
In the case of `Cl.OC(CN1CCc2ccsc2C1)c1ccccc1` (centres unmarked) [Derivative No. 23, 6-(2-hydroxy-2-phenyl-ethyl)-4,5,6,7-tetrahydro-thieno[2,3-c]pyridine, hydrochloride], in series [4], the 50% lethal dose (LD50) at 24 h is 67 mg/kg.
As for `COc1ccc(CN2CCc3ccsc3C2)cc1OC.Cl` [Derivative No. 25, 6-(3,4-dimethoxy-benzyl)-4,5,6,7-tetrahydro-thieno[2,3-c]pyridine, hydrochloride], in series [4], the LD50 at 24 h is 90 mg/kg.
The compound `Fc1ccccc1CN1CCc2ccsc2C1` [Derivative No. 26, 6-o.fluorobenzyl-4,5,6,7-tetrahydro-thieno[2,3-c]pyridine, fumarate] had an LD50 at 24 h in series [4] of 87 mg/kg.
Still for that read-out and setting: the figure for `CC1c2sccc2CCN1CCc1ccccc1` (stereo not drawn) [Derivative No. 31, 7-methyl-6-β-phenethyl-4,5,6,7-tetrahydro-thieno[2,3-c]pyridine, maleate] is 53 mg/kg.
On to `COc1cccc(C(O)CN2CCc3ccsc3C2C)c1` (centres unmarked) [Derivative No. 33, 6-(2-hydroxy-2-m.methoxyphenyl-ethyl)-7-methyl-4,5,6,7,-tetrahydro-thieno[2,3-c]pyridine], for which, in series [3], the inhibition at 100 mg/kg was found to be 74%.
Consider `COc1ccc(OC)c(C(O)CN2CCc3ccsc3C2C)c1` (centres unmarked) [Derivative No. 34, 6-[2-(2,5-dimethoxy-phenyl)-2-hydroxy-ethyl]-7-methyl-4,5,6,7-tetrahydro-thieno[2,3-c]pyridine], for which the LD50 at 24 h in series [4] came to 84 mg/kg.
On to `COc1ccc(OCC(O)CN2CCc3ccsc3C2)cc1` (centres unmarked) [Derivative No. 35, 6-(2-hydroxy-3-p.methoxyphenoxy-propyl)-4,5,6,7-tetrahydro-thieno[2,3-c]pyridine, hydrochloride], for which, in series [4], the LD50 at 24 h is 19 mg/kg.
On the same count and under the same terms, the figure for `CC(=O)CCN1CCc2ccsc2C1.O=C(O)/C=C\C(=O)O` [Derivative No. 36, 6-(3-oxo-butyl)-4,5,6,7-tetrahydro-thieno[2,3-c]-pyridine, maleate] is 16 mg/kg; for `OC(CN1CCc2ccsc2C1)C(Cl)(Cl)Cl` (centres unmarked) [Derivative No. 37, 6-(2-hydroxy-3,3,3-trichloro-propyl)-4,5,6,7-tetrahydro-thieno[2,3-c]pyridine] it is 18 mg/kg; for `COc1ccc(CN2CCc3ccsc3C2)cc1OC` [Derivative No. 38, 6-(3,4-dimethoxy-benzyl)-4,5,6,7-tetrahydro-thieno[2,3-c]pyridine] it is 22 mg/kg.
In series [4], `Cc1c2sccc2cc[n+]1CC(=O)c1ccccc1.[Br-]` [Derivative No. 39, 7-methyl-6-phenacyl-thieno[2,3-c]pyridinium bromide] showed an LD50 at 24 h of 35 mg/kg.
Still for that read-out and setting: to `COc1ccc(C(=O)C[n+]2ccc3ccsc3c2C)cc1.[Br-]` [Derivative No. 44, 7-methyl-6-p-methoxyphenacyl-thieno[2,3-c]pyridinium bromide] belongs 51 mg/kg.
`COc1cccc(C(CN2CCc3ccsc3C2)OC(C)=O)c1` (centres unmarked) [compound 10]: the inhibition in vivo at 100 mg/kg worked out at 48% in series [1] (setting [5]); 55% in series [1] (setting [6]); 43% in series [2] (setting [7]); 50% in series [2] (setting [8]); 56% in series [2] (setting [9]).
In the case of `OC(CN1CCc2ccsc2C1)c1ccccc1` (centres unmarked) [compound 23], the inhibition in vivo at 100 mg/kg in series [1] (setting [5]) stood at 50%; in series [1] (setting [6]), 61%; in series [2] (setting [7]), 39%; in series [2] (setting [8]), 51%; in series [2] (setting [9]), 58%.
For `COc1ccc(CN2CCc3ccsc3C2)c(OC)c1OC` [compound 28], in that order: 45%, 63%, 43%, 52% and 61%.
The matching figures for `COc1ccc(C(O)CN2CCc3ccsc3C2)cc1` (centres unmarked) [compound 30]: 39%, 59%, 38%, 44% and 51%.
With `COc1ccc(OC)c(C(O)CN2CCc3ccsc3C2C)c1` (centres unmarked) [compound 34], the inhibition in vivo at 100 mg/kg in series [1] (setting [5]) was found to be 45%; in series [1] (setting [6]), 61%; in series [2] (setting [7]), 37%; in series [2] (setting [8]), 48%; in series [2] (setting [9]), 58%.
